Legend:
[1] = molecular target: T1, purified recombinantly expressed human SSAO (Homo sapiens, UniProt Q16853); test: SSAO enzyme inhibition assay (benzylamine substrate; hydrogen peroxide/HRP-coupled or 14C-aldehyde detection); assay type: biochemical; conditions: SSAO inhibitory activity; recombinant human SSAO, RT
T1 construct: made in house
T1 sequence (Q16853 1-763): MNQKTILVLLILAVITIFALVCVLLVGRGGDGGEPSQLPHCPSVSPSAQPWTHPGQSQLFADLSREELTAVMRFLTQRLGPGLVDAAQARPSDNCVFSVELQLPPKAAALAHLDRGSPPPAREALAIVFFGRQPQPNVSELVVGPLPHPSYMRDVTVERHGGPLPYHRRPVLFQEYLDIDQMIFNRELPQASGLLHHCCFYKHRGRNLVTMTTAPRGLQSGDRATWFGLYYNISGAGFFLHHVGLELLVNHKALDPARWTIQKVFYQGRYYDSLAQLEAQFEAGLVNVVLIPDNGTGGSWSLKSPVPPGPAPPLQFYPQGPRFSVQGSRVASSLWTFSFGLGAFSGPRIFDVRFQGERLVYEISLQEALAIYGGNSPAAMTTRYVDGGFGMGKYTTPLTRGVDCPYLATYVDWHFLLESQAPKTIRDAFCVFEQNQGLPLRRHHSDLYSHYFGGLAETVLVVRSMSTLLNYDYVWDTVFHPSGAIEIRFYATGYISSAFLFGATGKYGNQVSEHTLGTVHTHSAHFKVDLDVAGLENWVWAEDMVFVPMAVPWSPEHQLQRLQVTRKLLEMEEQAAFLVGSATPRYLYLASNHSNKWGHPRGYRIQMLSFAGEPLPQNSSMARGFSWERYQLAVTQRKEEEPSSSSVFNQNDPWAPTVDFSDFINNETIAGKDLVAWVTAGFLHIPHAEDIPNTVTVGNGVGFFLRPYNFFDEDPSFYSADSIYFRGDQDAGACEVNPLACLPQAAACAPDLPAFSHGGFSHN
Method: All primary assays were performed at RT. with purified recombinantly expressed human SSAO. Enzyme was prepared essentially as described in Öhman et al. (Protein Expression and Purification 46 (2006) 321-331). In addition, secondary- and selectivity assays were performed using SSAO prepared from various tissues or purified rat recombinant SSAO. The enzyme activity was assayed with benzylamine as substrate by measuring either benzaldehyde production, using ^14C-labeled substrate, or by utilizing the production of hydrogen peroxide in a horseradish peroxidase (HRP) coupled reaction. Briefly, test compounds were dissolved in dimethyl sulfoxide (DMSO) to a concentration of 10 mM. Dose-response measurements were assayed by either creating 1:10 serial dilutions in DMSO to produce a 7 point curve or by making 1:3 serial dilutions in DMSO to produce 11 point curves. The top concentrations were adjusted depending on the potency of the compounds and subsequent dilution in reaction buffer yielded a final DMSO concentration ≤2%.
In a horseradish peroxidase (HRP) coupled reaction, hydrogen peroxide oxidation of 10-acetyl-3,7-dihydroxyphenoxazine produced resorufin, which is a highly fluorescent compound (Zhout and Panchuk-Voloshina. Analytical Biochemistry 253 (1997) 169-174; Amplex® Red Hydrogen Peroxide/peroxidase Assay kit, Invitrogen A22188). Enzyme and compounds in 50 mM sodium phosphate, pH 7.4 were set to pre-incubate in flat-bottomed microtiter plates for approximately 15 min before initiating the reaction by addition of a mixture of HRP, benzylamine and Amplex reagent. Benzylamine concentration was fixed at a concentration corresponding to the Michaelis constant, determined using standard procedures. Fluorescence intensity was then measured at several time points during 1-2 h, exciting at 544 nm and reading the emission at 590 nm. For the human SSAO assay final concentrations of the reagents in the assay wells were: SSAO enzyme 1 ug/mL, benzylamine 100 uM, Amplex reagent 20 uM, HRP 0.1 U/mL and varying concentrations of test compound. The inhibition was measured as % decrease of the signal compared to a control without inhibitor (only diluted DMSO). The background signal from a sample containing no SSAO enzyme was subtracted from all data points. Data was fitted to a four parameter logistic model and IC50 values were calculated using the GraphPad Prism 4 or XLfit 4 programs.
SSAO activity was assayed using […] benzylamine and analysed by measuring radioactive benzaldehyde. In a white 96-well optiplate (Packard), 20 uL of diluted test compound was pre-incubated at RT with 20 uL SSAO enzyme for approximately 15 min with continuous agitation. All dilutions were made with PBS. The reaction was initiated by adding 20 uL of the benzylamine substrate solution containing Benzylamine hydrochloride (CFA589, GE Healthcare). The plate was incubated for 1 h as above after which the reaction was stopped by acidification (10 uL 1M aq HCl). Then 90 uL Micro Scint-E solution (Perkin-Elmer) was added to each well and the plate was continuously mixed for 15 min. Phase separation occurred instantly and activity was read in a Topcount scintillation counter (Perkin-Elmer). In the final reaction well, the human recombinant SSAO concentration was 10 ug/mL. In order to optimize sensitivity, the substrate concentration was decreased as compared to the HRP coupled assay in order to get a higher fraction of radioactive product. In the human SSAO assay, benzylamine concentration was 40 uM (0.2uCi/mL). Data was analysed as above.

[2] = molecular target: T2, human ether a go-go related gene (hERG) K+ channel (Homo sapiens, UniProt Q12809); test: hERG assay, IonWorks patch clamp electrophysiology; assay type: cell-based; conditions: Chinese Hamster Lung cell line stably expressing hERG; max assay concentration 11 uM
T2 construct: Chinese Hamster Lung cell line stably expressing the full length hERG channel; expressed in transfected cells; host or cells: Chinese Hamster Lung cell line
T2 sequence (Q12809 whole entry): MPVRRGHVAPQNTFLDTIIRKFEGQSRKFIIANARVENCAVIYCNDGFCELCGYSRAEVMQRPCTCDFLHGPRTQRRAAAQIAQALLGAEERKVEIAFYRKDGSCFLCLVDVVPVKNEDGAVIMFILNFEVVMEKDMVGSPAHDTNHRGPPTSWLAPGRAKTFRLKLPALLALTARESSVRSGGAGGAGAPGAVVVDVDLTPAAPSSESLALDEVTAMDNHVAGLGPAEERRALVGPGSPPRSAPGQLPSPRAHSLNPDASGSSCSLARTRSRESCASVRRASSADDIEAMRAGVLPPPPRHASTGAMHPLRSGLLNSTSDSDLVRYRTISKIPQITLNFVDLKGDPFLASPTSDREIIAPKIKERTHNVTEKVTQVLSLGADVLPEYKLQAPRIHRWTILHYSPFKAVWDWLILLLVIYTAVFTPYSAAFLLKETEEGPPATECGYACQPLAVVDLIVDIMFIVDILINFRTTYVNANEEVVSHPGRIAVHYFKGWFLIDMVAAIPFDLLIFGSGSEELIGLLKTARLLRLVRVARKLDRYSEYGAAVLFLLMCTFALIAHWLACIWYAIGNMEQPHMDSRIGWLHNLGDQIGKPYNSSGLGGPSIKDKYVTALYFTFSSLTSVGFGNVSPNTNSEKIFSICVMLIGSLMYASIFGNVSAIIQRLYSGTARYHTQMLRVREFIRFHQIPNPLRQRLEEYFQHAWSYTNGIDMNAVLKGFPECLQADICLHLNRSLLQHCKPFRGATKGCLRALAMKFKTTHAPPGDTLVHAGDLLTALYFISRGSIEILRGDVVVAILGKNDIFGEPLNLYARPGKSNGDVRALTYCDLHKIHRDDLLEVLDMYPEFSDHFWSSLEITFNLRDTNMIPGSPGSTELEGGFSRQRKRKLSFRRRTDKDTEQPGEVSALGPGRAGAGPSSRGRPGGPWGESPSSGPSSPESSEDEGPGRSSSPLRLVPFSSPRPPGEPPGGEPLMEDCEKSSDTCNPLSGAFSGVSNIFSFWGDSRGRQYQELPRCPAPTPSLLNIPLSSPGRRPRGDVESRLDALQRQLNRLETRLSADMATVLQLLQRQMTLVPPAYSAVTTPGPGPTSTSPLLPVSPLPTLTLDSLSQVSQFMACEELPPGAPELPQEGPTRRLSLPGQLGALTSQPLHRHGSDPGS
Method: Compounds of the invention were tested for inhibition of the human ether a go-go related gene (hERG) K^+ channel using IonWorks patch clamp electrophysiology. 8 Point concentration-response curves were generated on two occasions using 3-fold serial dilutions from the maximum assay concentration (11 uM). Electrophysiological recordings were made from a Chinese Hamster Lung cell line stably expressing the full length hERG channel. Single cell ion currents were measured in the perforated patch clamp configuration (100 ug/mL amphoterocin) at RT using an IonWorks Quattro instrument. The internal solution contained 140 mM KCl, 1 mM MgCl2, 1 mM EGTA and 20 mM HEPES and was buffered to pH 7.3. The external solution contained 138 mM NaCl, 2.7 mM KCl, 0.9 mM CaCl2, 0.5 mM MgCl2, 8 mM Na2HPO4 and 1.5 mM KH2PO4, and was buffered to pH 7.3. Cells were clamped at a holding potential of […] for 30 s and then stepped to +40 mV for 1 s. This was followed by a hyperpolarising step of 1 s to […] to evoke the hERG tail current. This sequence was repeated 5 times at a frequency of 0.25 Hz. Currents were measured from the tail step at the 5th pulse, and referenced to the holding current. Compounds were incubated for 6-7 min prior to a second measurement of the hERG signal using an identical pulse train. A minimum of 17 cells were required for each pIC50 curve fit. A control compound (quinidine) was used (see Table 13 below).

SMILES	IC50 [1] [µM]	IC50 [2] [µM]
Cc1ccc(-n2c(-c3ccc(N4CCC(F)CC4)nc3)nc3ccncc32)cn1 [Compound 19, 2-(4-Fluoropiperidin-1-yl)-5-[3-(6-methylpyridin-3-yl)-3H-imidazo[4,5-c]pyridin-2-yl]pyridine]	< 0.05	> 10
Cc1ccc(-n2c(-c3ccc(NCCN4CCOCC4)nc3)nc3ccncc32)cc1 [Compound 21, 5-[3-(4-Methylphenyl)-3H-imidazo[4,5-c]pyridin-2-yl]-N-[2-(morpholin-4-yl)ethyl]pyridin-2-amine]	< 0.05	> 10
Cc1cc(N2CCOCC2)ncc1-c1nc2ccncc2n1-c1ccc(Cl)cn1 [Compound 12, 4-{5-[3-(5-Chloropyridin-2-yl)-3H-imidazo[4,5-c]pyridin-2-yl]-4-methylpyridin-2-yl}morpholine]	< 0.05	> 10
Cc1ccc(-n2c(-c3ccc(N4CCCC4)nc3)nc3ccncc32)cn1 [Compound 18, 5-[3-(6-Methylpyridin-3-yl)-3H-imidazo[4,5-c]pyridin-2-yl]-2-(pyrrolidin-1-yl)pyridine]	< 0.05	> 10

The next lines start with results.

IC50 [1] [µM]	SMILES	IC50 [2] [µM]
< 0.05	Fc1ccc(-n2c(-c3ccc(NC4CCOCC4)nc3)nc3ccncc32)cc1 [Compound 15, 5-[3-(4-Fluorophenyl)-3H-imidazo[4,5-c]pyridin-2-yl]-N-(oxan-4-yl)pyridin-2-amine]	> 10
< 0.05	Cc1ccc(-n2c(-c3ccc(NC4CC4)nc3)nc3ccncc32)cc1 [Compound 17, N-Cyclopropyl-5-[3-(4-methylphenyl)-3H-imidazo[4,5-c]pyridin-2-yl]pyridin-2-amine]	> 10
< 0.05	Cc1ccc(-n2c(-c3ccc(NC4CCOCC4)nc3)nc3ccncc32)cc1 [Compound 10, 5-[3-(4-Methylphenyl)-3H-imidazo[4,5-c]pyridin-2-yl]-N-(oxan-4-yl)pyridin-2-amine]	> 10

Source: patent publication US10065954B2, “Substituted imidazo[4,5-c]pyridines as SSAO inhibitors” (Proximagen Limited, priority 2014, dated 2018)
